According to patent US7651995B2, “Absorption enhancers such as e.g. BHT, BHA or propyl gallate” (Axcess Limited, priority 2003, dated 2010):

System: Caco-2 cells
Assay: Trans-epithelial electrical resistance (TEER) across Caco-2 cell monolayer
Type: cell-based, human
Conditions: Caco-2 monolayer; for TEER 15 minutes after addition: fall >50% of initial value considered significant; for TEER before addition: four replicates
Procedure: Caco-2 cells (a cell line derived from human colon adenocarcinoma) are grown as a confluent mono-layer on the surface of a porous membrane (pore size 0.4 μm, surface area 0.33 cm^2) separating two aqueous compartments, the upper compartment filled with 200 μl of culture medium, and the lower compartment containing 600 μl of the culture medium. Electrical resistance across the mono-layer is measured using an epithelial voltohmeter connected to electrodes inserted into the medium on either side of the mono-layer in the upper and lower compartments. This trans-epithelial electrical resistance (TEER) is measured immediately before, and fifteen minutes after the addition of aromatic alcohols to the upper compartment (typical results are given in the table below). Fall in TEER is considered indicative of the increased flow of materials (including bulk fluid phase) across the cell monolayer. Falls of greater than 50% of the initial value are considered significant. Reducing the concentration tends to reduce the effect observed.

[1] = agent 0.3 mg/ml in upper compartment
[2] = baseline immediately before addition of agent at 0.3 mg/ml

| SMILES | TEER 15 minutes after addition [1] [ohm · cm^2] | TEER before addition [2] [ohm · cm^2] | TEER 15 minutes after addition (agent 0.2 mg/ml in upper compartment) [ohm · cm^2] | TEER 15 minutes after addition (agent 13 mg/ml in upper compartment) [ohm · cm^2] | TEER before addition (baseline immediately before addition of agent at 0.2 mg/ml) [ohm · cm^2] | TEER before addition (baseline immediately before addition of agent at 13 mg/ml) [ohm · cm^2] |
| --- | --- | --- | --- | --- | --- | --- |
| COc1ccc(O)c(C(C)(C)C)c1 [Butylated hydroxy anisole, butylated hydroxy anisole] | 183 | 564 |  |  |  |  |
| Cc1cc(C(C)(C)C)c(O)c(C(C)(C)C)c1 [Butylated hydroxy toluene, butylated hydroxy toluene] | 194 | 633 |  |  |  |  |
| CCCOC(=O)c1cc(O)c(O)c(O)c1 [Propyl gallate, propyl gallate] |  |  | 629 | −0.6 | 667 | 494 |
